Results taken from patent publication US20030040510A1, “Selective estrogen receptor modulators in combination with estrogens” (Endorecherche, Inc., priority 2000, published 2003).
Marks after values point to notes of the source that are not given here.

Columns and labels:
ovariectomized rats = assay: 5-diol alone or with Flutamide and/or EM-800 for 12 months in ovariectomized rats (bone mass, serum markers)
[1] = tested on: ovariectomized female rats; assay: Prevention of bone loss, body fat, serum cholesterol and ALP, 3-month treatment of OVX rats (Example 5A, experiment 1); type: in vivo, Sprague-Dawley rats; settings: 3 months; for Serum ALP: OVX rats
Procedure: (§1) Ten to twelve week-old female Sprague-Dawley rats (Crl:CD(SD)Br) (Charles River Laboratory, St-Constant, Canada) weighing approximately 220-270 g at start of treatment were used. The animals were acclimatized to the environmental conditions (temperature: 22±3° C.; humidity: 50±20%; 12-h light-12-h dark cycles, lights on at 07:15 h) for at least 1 week before starting the experiments. The animals were housed individually and were allowed free access to tap water and a pelleted certified rodent feed (Lab Diet 5002, Ralston Purina, St-Louis, Mo.). Experiments were conducted in an animal facility approved by the Canadian Council on Animal Care (CCAC) and the Association for Assessment and Accreditation of Laboratory Animal Care (AAALAC) in accordance with the CCAC Guide for Care and Use of Experimental Animals.
On day 1 of the study, the animals of the appropriate groups were bilaterally ovariectomized (OVX) under isoflurane anesthesia. […] Treatments were initiated on day 2 of the study and were performed once daily during 3 months.
After 3 months (experiment 1) or 26 weeks (experiment 2) of treatment, individual rats under Isoflurane anesthesia had their whole body skeleton and lumbar spine scanned using dual energy x-ray absorptiometry (DEXA; QDR 4500A, Hologic, Waltham, Mass.) and a Regional High Resolution Scan software. The bone mineral density (BMD) of the lumbar spine (vertebrae L2 to L4) and the total body composition (fat percentage) were determined.
After 3 months (experiment 1) or 26 weeks (experiment 2) of treatment, blood samples were collected at the jugular vein from overnight fasted animals (under Isoflurane anesthesia). Samples were processed for serum preparation and frozen at −80° C. until assay. Serum cholesterol levels and alkaline phospatase activity (ALP) were determined using the Boehringer Mannheim Diagnostic Hitachi 911 Analyzer (Boehringer Mannheim Diagnostic Laboratory Systems).

[2] = tested on: OVX rats having established osteopenia; assay: Treatment of OVX rats having established osteopenia, 26 weeks (Example 5B): BMD, total body fat; type: in vivo, Sprague-Dawley rats; settings: treatment started 10 weeks after OVX, 26 weeks daily
Procedure: as §1, with “Height” for “Ten”, “nine month-old” for “twelve week-old”, “Canada)” for “Canada) weighing approximately 220-270 g at start of treatment”, “used in this experiment.” for “used.”, “prior to” for “before starting”, “ovariectomy. Animals were bilaterally ovariectomized (OVX) under isoflurane anesthesia. Twenty animals were kept intact as control.” for “experiments.”
Treatments were initiated 10 weeks after the ovariectomy and were performed once daily during 26 weeks. Animals not receiving a test article were treated with the appropriate vehicle alone during the same period.
Prior to the OVX, prior to the first day treatment (10 weeks after OVX) and after 26 weeks of treatment, individual rats under Isoflurane anesthesia had their whole body skeleton, lumbar spine and right femur scanned using dual energy x-ray absorptiometry (DEXA; QDR 4500A, Hologic, Waltham, Mass.) and a Regional High Resolution Scan software. The bone mineral density (BMD) of the lumbar spine (vertebrae L2 to L4), femur and the total body composition (fat percentage) were determined.

[3] = tested on: ovariectomized rats supplemented with 17β-estradiol; assay: EM-652.HCl with oral 17β-estradiol for 2 weeks in OVX rats: uterus, endometrial epithelium, vagina, serum cholesterol (Example 10); type: in vivo, Sprague-Dawley rats
Procedure: Ten to twelve week-old female Sprague-Dawley rats (Crl:CD(SD)Br) (Charles River Laboratory, St-Constant, Canada) weighing 215-265 g at time of ovariectomy were used. The animals were housed individually in an environmentally-controlled room (temperature: 22±3° C.; humidity: 50±20%; 12-h light-12-h dark cycles, lights on at 07:15 h). The animals were allowed free access to tap water and a certified rodent feed (Lab Diet 5002 (pellet), Ralston Purina, St-Louis, Mo.). The experiment was conducted in an animal facility approved by the Canadian Council on Animal Care (CCAC) and the Association for Assessment and Accreditation of Laboratory Animal Care (AAALAC) in accordance with the CCAC Guide for Care and Use of Experimental Animals.
On the first day of the study, the animals of the appropriate groups were bilaterally ovariectomized (OVX) under isoflurane anesthesia. The tested compounds were then given once daily by oral gavage as a suspension in 0.4% methylcellulose (0.5 ml/rat) from day 1 to day 14 of the study. Animals of groups 1 and 2 received the vehicle alone during the same time period. On day 15 of the study, 4 animals per group were perfused with 10% buffered formalin and tissues were processed for histological examination. The other animals were killed by exsanguination at the abdominal aorta under isoflurane anesthesia. The uterus and vagina were removed, stripped of remaining fat and weighed. A specimen from each uterus was fixed in 10% buffered formalin for determination of the height of endometrial epithelial cells using a computerized-assisted program (Software Image-Pro Plus).
Total cholesterol was measured on serum samples collected from overnight fasted animals using a Boehringer Mannheim Diagnostic Hitachi 911 Analyzer (Boehringer Mannheim Diagnostic Laboratory Systems).

ZR-75-1 breast tumors = assay: Growth and response category of human ZR-75-1 breast tumors in OVX nude mice, 7 antiestrogens, 161 days (Example 8); type: in vivo; settings: 161 days; for Change of ZR-75-1 tumor size compared to the OVX control group: 200 μg daily alone
Procedure: The mice (5 per cage) were housed in vinyl cages equipped with air filter lids, which were kept in laminar airflow hoods and maintained under pathogen-limiting conditions. The photoperiod was 12 hours of light and 12 hours of darkness (lights on at 07:15). Cages, bedding and food (Agway Pro-Lab R-M-H Diet #4018) were autoclaved before use. Water was autoclaved and provided ad libitum. Bilateral ovariectomy was performed under isoflurane-induced anesthesia. […] Randomization and treatments were started one week later. […] The 17 groups included two control groups (OVX and OVX+Estrone), seven groups supplemented with an estrone implant and treated with an antiestrogen and eight other groups that received an antiestrogen alone. The estrone implants were then removed from the animals in the ovariectomized control group (OVX) and in groups that were to receive the antiestrogen alone. […] Tamoxifen was purchased from […], Israel) while toremifene citrate was purchased from Orion (Espoo, Finland). […] Animals in both control groups received 0.2 ml of the vehicle alone. The antiestrogen suspensions at the appropriate concentration were prepared each month, stored at 4° C. and used under constant agitation. Powder stock were hermetically stored at 4° C. […] Tumor response was assessed at the end of the study or at death of each animal, if it occurred during the course of the experiment. In this case, only data of mice that survived for at least half of the study (84 days) were used in the tumor response analysis.

endometrial epithelium = assay: Thickness of uterine (endometrial) epithelial cells in the mice of Example 8; type: in vivo, nude mice; settings: for Endometrial epithelium thickness: OVX + antiestrogen 200 μg daily, no estrone, 161 days
Text: The 17 groups included two control groups (OVX and OVX+Estrone), seven groups supplemented with an estrone implant and treated with an antiestrogen and eight other groups that received an antiestrogen alone. The estrone implants were then removed from the animals in the ovariectomized control group (OVX) and in groups that were to receive the antiestrogen alone. […] Tamoxifen was purchased from […], Israel) while toremifene citrate was purchased from Orion (Espoo, Finland). […] Animals in both control groups received 0.2 ml of the vehicle alone. The antiestrogen suspensions at the appropriate concentration were prepared each month, stored at 4° C. and used under constant agitation. Powder stock were hermetically stored at 4° C. […] After 161 days of treatment, the remaining animals were anesthetized with isoflurane and killed by exsanguination. […] The uteri were prepared to evaluate endometrial thickness by image analysis performed with Image Pro-Plus (Media Cybernetics, Maryland, USA). […] Hematoxylin- and eosin-stained sections of mice uteri were analysed. […] Mean epithelial cell height was measured in all animals of each group.

[4] = tested on: breast and endometrial tissues; assay: Antiestrogens tested for SERM function and estrogenic activity in breast and endometrium; settings: for Estrogenic activity in breast and endometrial tissues: physiological or pharmacological concentrations
Text: As used herein, a selective estrogen receptor modulator (SERM) is a compound that either directly or through its active metabolite functions as an estrogen receptor antagonist (“antiestrogen”) in breast tissue, yet provides estrogenic or estrogen-like effect on bone tissue and on serum cholesterol levels (i.e. by reducing serum cholesterol). Non-steroidal compounds that function as estrogen receptor antagonists in vitro or in human or rat breast tissue (especially if the compound acts as an antiestrogen on human breast cancer cells) is likely to function as a SERM. Conversely, steroidal antiestrogens tend not to function as SERMs because they tend not to display any beneficial effect on serum cholesterol. […] These SERMs may be called “pure SERMs”. […] This second series of SERMs may be called “mixed SERMs”. The unwanted estrogenic activities of these “mixed SERMs”, may be inhibited by addition of pure “SERMs” as shown in FIGS. 6 and 7 in in vitro tests and in FIG. 9 in an in vivo test of breast cancer.

[5] = tested on: uterus and vagina of ovariectomized mice; assay: Uterine and vaginal weight in ovariectomized mice treated or not with estrone (9 days oral); type: in vivo, BALB/c mice
Procedure: (St-Constant, Quebec, Canada) and housed 5 per cage in a temperature (23±1° C.)—and light (12 h light/day, lights on at 7:15)—controlled environment. The mice were fed rodent chow and tap water ad libitum. […] Ten mice were kept intact as controls. […] Compounds were dissolved in ethanol (4% final concentration) and administered in 0.4% methylcellulose. Mice in the intact and OVX control groups received the vehicle alone (4% ETOH-0.4% methylcellulose) during the 9-day period. The animals were killed by exsanguination at the abdominal aorta on the 11th morning following ovariectomy.

[6] = 10 μg alone, absence of estrone, OVX mice

C[C@]12CC[C@H]3[C@@H](CC=C4C[C@@H](O)CC[C@@]43C)[C@@H]1CC[C@@H]2O [5-diol, androst-5-ene-3β,17β-diol]
Serum alkaline phosphatase activity (ovariectomized rats; 5-diol): marked stimulation
Urinary ratio of calcium to creatinine (ovariectomized rats; 5-diol): no statistically significant inhibitory effect
Reduction of serum cholesterol (ovariectomized rats; highest dose of 5-diol): 23%

C[C@]12CC[C@@H]3c4ccc(O)cc4CC[C@H]3[C@@H]1CC[C@@H]2O [E2, 17β-estradiol, reference compound]
Serum ALP [1]: 59 ± 4 IU/L
Femoral BMD [2]: completely prevented the further decrease
Lumbar spine BMD [2]: completely prevented the further decrease
Total body fat [2]: prevented the 17% increase
Endometrial epithelial height ([3]; OVX + E2 2 mg/kg): 41.9±1.2 μm
Endometrial epithelial height higher than in intact control animals ([3]; OVX + E2 2 mg/kg): 34.7%
Inhibition of serum cholesterol levels ([3]; OVX + E2 2 mg/kg): 53%
Vaginal weight ([3]; OVX + E2 2 mg/kg): 149.9 ± 9.0 mg
Uterine weight ([3]; OVX + E2 2 mg/kg oral daily, 2 weeks): 490 ± 26 mg

CC/C(=C(\c1ccccc1)c1ccc(/C=C/C(=O)O)cc1)c1ccccc1 [GW 5638]
Serum ALP [1]: 72 ± 6 IU/L
OVX-induced increase on serum cholesterol levels ([1]; alone or in combination with E2): completely prevented
Progressing tumors (ZR-75-1 breast tumors; 50 μg daily + estrone): 77%
Change of ZR-75-1 tumor size compared to the OVX control group (ZR-75-1 breast tumors; absence of estrone): did not significantly change
Endometrial epithelium thickness (endometrial epithelium): 22.22^a ± 0.05 μm
Function as SERM [4]: found to function as SERMs
Estrogenic activity in breast and endometrial tissues [4]: have some estrogenic activities

CC/C(=C(\c1ccc(I)cc1)c1ccc(OCCN2CCCC2)cc1)c1ccccc1 [Idoxifene, (E)-1-[2-[4-[1-(4-Iodophenyl)-2-phenyl-1-butenyl]phenoxy]ethyl]pyrrolidine]
Progressing tumors (ZR-75-1 breast tumors; 50 μg daily + estrone): 71%
Progressing tumors (ZR-75-1 breast tumors; 200 μg daily, absence of estrone): 33%
Inhibition of the stimulatory effect of estrone on epithelial height (endometrial epithelium; 50 μg daily oral + estrone): 50%
Function as SERM [4]: found to function as SERMs
Estrogenic activity in breast and endometrial tissues [4]: have some estrogenic activities

Cl.O=C(c1ccc(OCCN2CCCCC2)cc1)c1c(-c2ccc(O)cc2)sc2cc(O)ccc12 [Raloxifene, [2-(4-hydroxyphenyl)-6-hydroxybenzo[b]thien-3-yl][4-[2-(1-piperidinyl)ethoxy]phenyl]-methanone hydrochloride]
Stimulation of uterine weight [5, 6]: 85%
Stimulation of vaginal weight [5, 6]: 56%
Inhibition of estrone-stimulated vaginal weight ([5]; 10 μg daily oral, 9 days, OVX mice + E1): 24%
Progressing tumors (ZR-75-1 breast tumors; 50 μg daily + estrone): 81%
Change of ZR-75-1 tumor size compared to the OVX control group (ZR-75-1 breast tumors; absence of estrone): did not significantly change
Endometrial epithelium thickness (endometrial epithelium): 22.33^a ± 0.05 μm
Function as SERM [4]: found to function as SERMs
Estrogenic activity in breast and endometrial tissues [4]: have some estrogenic activities

CC/C(=C(/c1ccc(OCCN(C)C)cc1)c1cccc(O)c1)c1ccccc1 [Droloxifene, (E)-3-[1-[4-[2-(Dimethylamino)ethoxy]phenyl]-2-phenyl-1-butenyl]phenol]
Progressing tumors (ZR-75-1 breast tumors; 50 μg daily + estrone): 100%
Change of ZR-75-1 tumor size compared to the OVX control group (ZR-75-1 breast tumors; absence of estrone): did not significantly change
Endometrial epithelium thickness (endometrial epithelium): 18.50 ± 0.07 μm
Function as SERM [4]: found to function as SERMs
Estrogenic activity in breast and endometrial tissues [4]: have some estrogenic activities

CC(C)C(=O)Nc1ccc([N+](=O)[O-])c(C(F)(F)F)c1 [FLU, Flutamide]
Reversal of 5-diol-stimulated serum alkaline phosphatase activity (ovariectomized rats; simultaneous FLU, vs 12.5 mg 5-diol alone): 57%
